The test system of assay [1] is mixture of Asaia bogorensis, Asaia lannaensis, Gluconobacter oxydans and Gluconacetobacter liquefaciens. The conditions noted are these: individual active ingredient; substrate iced tea; 200 cfu/mL per bacterium in the mixture.
From the text: (§1) A drink was contaminated with a particular amount of a mixture of microorganisms and a mixture of preservatives was investigated for efficacy compared to the individual substances. The mixture of bacteria is composed of Asaia bogorensis, Asaia lannaensis, Gluconobacter oxydans and Gluconacetobacter liquefaciens.
(§2) The following relationships apply: QA/Qa+QB/Qb+QC/Qc=SI • Qa=concentration of substance A which is the MIC • Qb=concentration of substance B which is the MIC • Qc=concentration of substance C which is the MIC • QA=concentration of substance A in the concentration of A/B/C at which microbial growth is suppressed • QB=concentration of substance B in the concentration of A/B/C at which microbial growth is suppressed • QC=concentration of substance C the concentration of A/B/C at which microbial growth is suppressed • SI=Synergy Index • SI=1 means additivity • SI>1 means antagonism • SI<1 means synergism
For assay [2] the test system is unchanged. Kind of assay: microbe, parasite or virus in culture. The conditions noted are these: 168 h, read-out: MIC ppm after one week.
From the text: as §1, §2

This note sets out measurements from patent US9918488B2, “Method for sterilizing drinks contaminated with acetic acid bacteria” (LANXESS Deutschland GmbH, priority 2014, dated 2018).

Values after ≈ are worked out from the molar mass of the structure shown.

Turning to `COC(=O)OC(=O)OC` [Dimethyl dicarbonate, dimethyl dicarbonate], the “MIC ppm after one week” value in assay [1] was 300 µg/mL (≈ 2240 µM). In assay [2], the MIC came to 300 µg/mL (≈ 2240 µM).

On to `O=C([O-])c1ccccc1.[Na+]` [Sodium benzoate, sodium benzoate], for which the “MIC ppm after one week” value in assay [1] is 550 µg/mL.

For the molecule `O=S([O-])OS(=O)[O-].[K+].[K+]` [Potassium disulphite, potassium disulphite], in assay [1], the “MIC ppm after one week” value worked out at 60 µg/mL. Moreover, in assay [2], the MIC is 60 µg/mL.

As for `C/C=C/C=C/C(=O)[O-].[K+]` [Potassium sorbate, potassium sorbate], in assay [2], the MIC was found to be 750 µg/mL.
